Data reported in PubChem BioAssay (NCI).
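At the GI50, growth is halved. At the TGI there is no net growth.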

How the values were obtained:
Test in all cases: NCI tumour cell line growth inhibition, 384-well format
786-0 renal = system: 786-0 renal
A498 renal = system: A498 renal
A549 NSCLC = system: A549 NSCLC
ACHN renal = system: ACHN renal
BT-549 breast = system: BT-549 breast
CAKI-1 renal = system: CAKI-1 renal
CCRF-CEM leukemia = system: CCRF-CEM leukemia
COLO 205 colon = system: COLO 205 colon
DU-145 prostate = system: DU-145 prostate
HCC-2998 colon = system: HCC-2998 colon
HCT-116 colon = system: HCT-116 colon
HCT-15 colon = system: HCT-15 colon
HL-60(TB) leukemia = system: HL-60(TB) leukemia
HOP-62 NSCLC = system: HOP-62 NSCLC
HOP-92 NSCLC = system: HOP-92 NSCLC
HT29 colon = system: HT29 colon
IGROV1 ovarian = system: IGROV1 ovarian
K-562 leukemia = system: K-562 leukemia
KM12 colon = system: KM12 colon
LOX IMVI melanoma = system: LOX IMVI melanoma
M14 melanoma = system: M14 melanoma
MALME-3M melanoma = system: MALME-3M melanoma
MCF7 breast = system: MCF7 breast
MDA-MB-231 breast = system: MDA-MB-231 breast
MDA-MB-435 melanoma = system: MDA-MB-435 melanoma
MDA-MB-468 breast = system: MDA-MB-468 breast
MOLT-4 leukemia = system: MOLT-4 leukemia
NCI-H226 lung = system: NCI-H226 lung
NCI-H23 lung = system: NCI-H23 lung
NCI-H322M lung = system: NCI-H322M lung
NCI-H460 NSCLC = system: NCI-H460 NSCLC
NCI-H522 lung = system: NCI-H522 lung
NCI/ADR-RES ovarian = system: NCI/ADR-RES ovarian
OVCAR-3 ovarian = system: OVCAR-3 ovarian
OVCAR-4 ovarian = system: OVCAR-4 ovarian
OVCAR-5 ovarian = system: OVCAR-5 ovarian
OVCAR-8 ovarian = system: OVCAR-8 ovarian
PC-3 prostate = system: PC-3 prostate
RPMI-8226 leukemia = system: RPMI-8226 leukemia
RXF 393 renal = system: RXF 393 renal
SF-268 CNS = system: SF-268 CNS
SF-295 CNS = system: SF-295 CNS
SF-539 CNS = system: SF-539 CNS
SK-MEL-2 melanoma = system: SK-MEL-2 melanoma
SK-MEL-28 melanoma = system: SK-MEL-28 melanoma
SK-MEL-5 melanoma = system: SK-MEL-5 melanoma
SK-OV-3 ovarian = system: SK-OV-3 ovarian
SN12C renal = system: SN12C renal
SNB-19 CNS = system: SNB-19 CNS
SR leukemia = system: SR leukemia
SW-620 colon = system: SW-620 colon
T-47D breast = system: T-47D breast
TK-10 renal = system: TK-10 renal
U251 glioblastoma = system: U251 glioblastoma
UACC-257 melanoma = system: UACC-257 melanoma
UACC-62 melanoma = system: UACC-62 melanoma
UO-31 renal = system: UO-31 renal

SMILES: COc1nnc2ccc(N3CCC(c4ccc(OCCN5CCN(C)C(=O)[C@H]5C)cc4)CC3)nn12
- GI50 ([…]-0 renal): 45.5 nM
- TGI (786-0 renal): 13400 nM
- GI50 (A498 renal): 53.8 nM
- TGI (A498 renal): 655 nM
- GI50 (A549 NSCLC): 42.5 nM
- TGI (A549 NSCLC): 1640 nM
- GI50 (ACHN renal): 108 nM
- TGI (ACHN renal): 3050 nM
- GI50 (BT-549 breast): 23.1 nM
- TGI (BT-549 breast): 214 nM
- GI50 (CAKI-1 renal): 16.9 nM
- TGI (CAKI-1 renal): 382 nM
- GI50 (CCRF-CEM leukemia): 26.8 nM
- TGI (CCRF-CEM leukemia): 166 nM
- GI50 (COLO 205 colon): 35.9 nM
- TGI (COLO 205 colon): 248 nM
- GI50 (DU-145 prostate): 369 nM
- TGI (DU-145 prostate): > 100000 nM
- GI50 (HCC-2998 colon): 13.3 nM
- TGI (HCC-2998 colon): 48.8 nM
- GI50 (HCT-116 colon): 37.7 nM
- TGI (HCT-116 colon): 2530 nM
- GI50 (HCT-15 colon): 31.7 nM
- TGI (HCT-15 colon): 194 nM
- GI50 (HL-60(TB) leukemia): < 10 nM
- TGI (HL-60(TB) leukemia): 19.1 nM
- GI50 (HOP-62 NSCLC): 27.4 nM
- TGI (HOP-62 NSCLC): 475 nM
- GI50 (HOP-92 NSCLC): 12.7 nM
- TGI (HOP-92 NSCLC): 74.5 nM
- GI50 (HT29 colon): 28.8 nM
- TGI (HT29 colon): 2120 nM
- GI50 (IGROV1 ovarian): 29.3 nM
- TGI (IGROV1 ovarian): 162 nM
- GI50 (K-562 leukemia): 35 nM
- TGI (K-562 leukemia): 3710 nM
- GI50 (KM12 colon): 46 nM
- TGI (KM12 colon): 12500 nM
- GI50 (LOX IMVI melanoma): 27.2 nM
- TGI (LOX IMVI melanoma): 61 nM
- GI50 (M14 melanoma): 18.3 nM
- TGI (M14 melanoma): 1570 nM
- GI50 (MALME-3M melanoma): 73.8 nM
- TGI (MALME-3M melanoma): 791 nM
- GI50 (MCF7 breast): 11.7 nM
- TGI (MCF7 breast): 158 nM
- GI50 (MDA-MB-231 breast): 46.2 nM
- TGI (MDA-MB-231 breast): 2570 nM
- GI50 (MDA-MB-435 melanoma): 75.9 nM
- TGI (MDA-MB-435 melanoma): > 100000 nM
- GI50 (MDA-MB-468 breast): < 10 nM
- TGI (MDA-MB-468 breast): 51.2 nM
- GI50 (MOLT-4 leukemia): 14.3 nM
- TGI (MOLT-4 leukemia): 37.7 nM
- GI50 (NCI-H226 lung): 38.9 nM
- TGI (NCI-H226 lung): 416 nM
- GI50 (NCI-H23 lung): 62.7 nM
- TGI (NCI-H23 lung): 629 nM
- GI50 (NCI-H322M lung): 28.9 nM
- TGI (NCI-H322M lung): 640 nM
- GI50 (NCI-H460 NSCLC): 58.7 nM
- TGI (NCI-H460 NSCLC): 15400 nM
- GI50 (NCI-H522 lung): < 10 nM
- TGI (NCI-H522 lung): 46 nM
- GI50 (NCI/ADR-RES ovarian): 269 nM
- TGI (NCI/ADR-RES ovarian): 2180 nM
- GI50 (OVCAR-3 ovarian): 17.2 nM
- TGI (OVCAR-3 ovarian): 135 nM
- GI50 (OVCAR-4 ovarian): 10.2 nM
- TGI (OVCAR-4 ovarian): 40.2 nM
- GI50 (OVCAR-5 ovarian): 60.5 nM
- TGI (OVCAR-5 ovarian): 2970 nM
- GI50 (OVCAR-8 ovarian): 23.9 nM
- TGI (OVCAR-8 ovarian): 218 nM
- GI50 (PC-3 prostate): 122 nM
- TGI (PC-3 prostate): 90700 nM
- GI50 (RPMI-8226 leukemia): 12.2 nM
- TGI (RPMI-8226 leukemia): 33.8 nM
- GI50 (RXF 393 renal): 22.8 nM
- TGI (RXF 393 renal): 78.8 nM
- GI50 (SF-268 CNS): 58.6 nM
- TGI (SF-268 CNS): 14400 nM
- GI50 (SF-295 CNS): 86.4 nM
- TGI (SF-295 CNS): 4970 nM
- GI50 (SF-539 CNS): 53.9 nM
- TGI (SF-539 CNS): 8620 nM
- GI50 (SK-MEL-2 melanoma): < 10 nM
- TGI (SK-MEL-2 melanoma): 41.3 nM
- GI50 (SK-MEL-28 melanoma): 30.6 nM
- TGI (SK-MEL-28 melanoma): 1490 nM
- GI50 (SK-MEL-5 melanoma): 17.8 nM
- TGI (SK-MEL-5 melanoma): 98.6 nM
- GI50 (SK-OV-3 ovarian): 17.3 nM
- TGI (SK-OV-3 ovarian): 144 nM
- GI50 (SN12C renal): 165 nM
- TGI (SN12C renal): 1480 nM
- GI50 (SNB-19 CNS): 311 nM
- TGI (SNB-19 CNS): 77900 nM
- GI50 (SR leukemia): < 10 nM
- TGI (SR leukemia): 20.8 nM
- GI50 (SW-620 colon): 114 nM
- TGI (SW-620 colon): 1280 nM
- GI50 (T-47D breast): 29.7 nM
- TGI (T-47D breast): 537 nM
- GI50 (TK-10 renal): 34.8 nM
- TGI (TK-10 renal): 460 nM
- GI50 (U251 glioblastoma): 77.1 nM
- TGI (U251 glioblastoma): 11900 nM
- GI50 (UACC-257 melanoma): 25 nM
- TGI (UACC-257 melanoma): 573 nM
- GI50 (UACC-62 melanoma): < 10 nM
- TGI (UACC-62 melanoma): 96.4 nM
- GI50 (UO-31 renal): 56.9 nM
- TGI (UO-31 renal): 1560 nM
